Tested on: Caski cells
Test: Azide-cyclooctyne templated assembly on HPV16 E6/E7 in transfected living cells, sandwich detection of ligated product
Assay type: cell-based, human
Conditions: Lipofectamine 2000 transfection, 24 hours after transfection
Description: A set of corresponding reactants specific for the HPV16 E6/E7 gene were transfected into Caski cells to evaluate non-traceless nucleic acid templated assembly on tumor-associated targets in living cells. Sandwich enzymatic detection was used to confirm that templated assembly ligation product was preferentially formed in Caski cells rather than related cell lines lacking HPV16 E6/E7 sequence
Caski and HeLa cell lines were cultured in DMEM medium with 10% heat inactivated fetal bovine serum. For each experimental condition, 1×10^6 cells were plated in a T-25 flask 24 hours before transfection. A flask from each cell line was transfected with both templated assembly reactants (experimental), and Caski flasks were also transfected with each one of the reactants in isolation as well (negative controls).
Lipofectamine 2000 (Invitrogen) was used as the transfection reagent in accordance with the manufacturer's instructions Immediately prior to transfection, cell flasks were washed with 1×PBS and Optimem serum-free medium was added as the growth medium. […] Separately, 11 uL of Lipofectamine 2000 was incubated with 275 uL of Optimem serum-free medium for 15 minutes. […] 500 uL of the Oligo-3.1-Lipofectamine transfection solution was then dispensed to the experimental flask. […]

Substance: 5′-FAM-CCAGAUGUCUUUGCU-Azide-3′ [Oligo-3.1]
- Corrected Absorbance A450: 0.003

Reference: patent publication US10603385B2, “Methods and compositions for templated assembly of nucleic acid specific heterocompounds” (priority 2013, dated 2020)
